The record followed here is PMC11865978, “Cellular Activity of CQWW Nullomer-Derived Peptides” (ACS Omega, 2025).

Assay [1] concerns mitochondria, all cell lines including GCGR-NS9FB_B. Description: Mitotracker stain intensity in cell painting assay. The format is cell-based, human. The conditions noted are these: compared with Peptide 15 control. The protocol: Figure S4 – Network analysis (STRING) showing protein interactions resulting from treatment with […]
2nd shell) <10. Top ranked Gene Ontology (GO terms) for biological processes is listed (top right) with Log[False Discovery Rate] indicated.
High Content Phenotypic Screening assays
Cell lines (glioma stem cell lines and normal foetal neural stem cells) were seeded on laminin (10 µg/mL) coated 384-well plates (Greiner Bio-One, 781091) at 1,000 cells/well and incubated overnight at 37 °C and 5% CO2. Aqueous peptide solutions (10 mM) were further diluted to 1 mM in water containing 10 % glycerol and 0.01 % TX-100. […]
(§1) BSA/PBS. […] The data was then analyzed using a custom CellProfiler software pipeline using the University of Edinburgh high performance computing cluster. Dose response plots were calculated using HC StratomineR (corelifeanalytics.com). Nuclei count data was analyzed separately to generate cell survival metrics (normalized to aqueous glycerol/TX -100 control).
(§2) Dose response curves were fitted and IC50 values calculated using Prism GraphPad (graphpad.com). […]
Figure S5 – The CellProfiler-derived feature “MedianNucleiIntensityMADIntensityW5”, reading out mitotracker stain intensity observed in cell nuclei after treatment with the Peptide 2 nullomer (blue) and Peptide 15 (control). […]

For assay [2], the system named is GCGR-E13. The experiment in a line: Multiparametric cell painting phenotypic profile (PCA). The conditions noted are these: 1-16 μM, compared with control polyarginine peptide 15 and DMSO. The format is cell-based, human. As to the method: Figure 1 (A) 3D model of the CQWW peptide with residue labels shown in red. (B) Dose-dependent effect of peptide 2 (RRRRRCQWW) on cell survival across a range of cell lines, with fitted IC50 values shown below. (C) Representative live cell brightfield images of peptide 2 (RRRRRCQWW, 6 μM) against the glioblastoma stem cell line (GCGR-E28) versus normal neural stem cells (GCGR-NS9FB_B) after 3 h of incubation. (D) 3D principal component analysis (PCA 1, 2, and 3) from multiparametric cell painting image analysis of the GCGR-E13 cell line. […]
The phenotypic effect of the peptides was visualized by live cell imaging (Figure 1C, IncuCyte live cell imager) and also quantified via image analysis of cells labeled with the cell painting reagents (see Supporting Information) followed by image analysis using Cell Profiler (cellprofiler.org). […]
as §1, §2

Regarding H-RRRRRCQWW-NH2 [Peptide 2], in assay [1], the “mitotracker stain intensity in cell nuclei (MedianNucleiIntensityMADIntensityW5)” value was “reduce mitotracker intensity in a dose dependent manner” and the “mitotracker stain intensity in cells (MedianCellsIntensityMeanIntensityW5)” value is on record as “reduce mitotracker intensity in a dose dependent manner”. In addition, the “phenotypic profile in 3D principal component plot of cell painting features” value in assay [2] was “strong, dose-dependent phenotype”.
